Results taken from PMC9041133 (RSC Advances, 2021).

Legend:
[1] = Pharmacokinetic study in healthy volunteers after oral fixed-combination tablet, plasma measured by USA-DMSPE-HPLC-UV; type: in vivo; details: human; for half-life: read-out: T ½ (converted)
Procedure: First of all, some frozen human plasma samples were allowed to be thawed at room temperature (23 ± 0.5 °C) and afterwards they were placed into centrifuge tubes. Acetonitrile was applied as a deproteinizing agent to precipitate all proteins existing in plasma. In this regard, 1.9 mL of plasma was spiked with 100.0 μL of working standard solutions to get the suitable concentration level of DIC and FEB, then, to all tubes, 2.0 mL acetonitrile was added. All the biological samples were vortexed for 3 min for complete mixing and followed with centrifugation at 5000 rpm for 4 min. For evaporating the acetonitrile content of each real sample, the tube containing the spiked sample was placed under a stream of nitrogen. To adjust the pH of media, 4.0 mL buffer solution at pH 5.0 was added to real sample. Eventually, 5.0 mL of the resultant spiked sample was subjected to the extraction and measurement protocols for further evaluations.
5.0 mL of the prepared spiked human plasma was placed into a centrifuge tube and then 20.0 mg of synthesized hybrid sorbent was added to the tube. For ensuring the complete dispersion of the supermagnetic hybrid sorbent into the solution, ultrasonic irradiation was utilized for 6 min. As the sorbent is dispersed through the sample, the target drugs are adsorbed on the surface of it. Subsequently, an external magnetic field composed of neodymium (Nd), iron (Fe) and boron (B) (0.8 tesla) was applied to separate the hybrid sorbent from media and the free drug sample was removed by a pipette. In order to desorb the target drugs from the extractor, it was washed with 1.5 mL with acetonitrile in three steps (0.5 mL in each step) while ultrasonic irradiation was applied for 3 min. Nd-Fe-B-Nd magnet was used again in this step and then the solution was separated and dried under a stream of nitrogen. After collecting the remaining material, which contains DIC and FEB, was dissolved in 50.0 μL of the mobile phase of HPLC and 20.0 μL of it was injected into the separation column and further measurements were carried out.
The volunteer's blood were collected after 0 to 4 and 8, 12 and 24 h of taking the drug and the samples were transferred to the polypropylene tubes containing ethylenediaminetetraacetic acid and centrifuged to achieve the required human plasma, after that the samples were kept at −18 °C. […] The samples were analyzed by means of the current method and the average concentration of each drug versus time was drawn. In this assessment, some major pharmacokinetic features including Tmax, Cmax, AUC0–t, AUC0–∞, and T½ were calculated and the results were summarized in Table 3.

[2] = set-up: method as in doi:10.1016/j.microc.2019.03.022, PMID 28953473; details: reported values; cited from earlier work

Row | SMILES | Tmax [1] [h] | half-life [1] [h] | pKa [2]
1 | O=C(O)Cc1ccccc1Nc1c(Cl)cccc1Cl [Diclofenac, 2-(2,6-dichloranilino)phenylacetic acid] | 2.88 ± 0.3 | 5.1 ± 1.1 | –
2 | Cc1nc(-c2ccc(OCC(C)C)c(C#N)c2)sc1C(=O)O [Febuxostat, 2-(3-cyano-4-isobutoxyphenyl)-4-methyl-1,3-thiazole-5-carboxylic acid] | 3.15 ± 0.27 | 6.3 ± 1.5 | 3.3
